Experimental data from patent publication US9757369B2, “Heterocyclic GSK-3 allosteric modulators” (Consejo Superior de Investigaciones Cientificas (CSIC), priority 2011, dated 2017).
Entries after “also recorded” stand apart in the source; their conditions may differ.

What follows are compounds tested on GSK-3β (assay: Kinetic study varying GS-2 peptide substrate concentration (double-reciprocal plot)). Settings: GS-2 15.5 to 100 μM, ATP 1 μM, inhibitor 5 to 10 μM.
Type: biochemical, human
Procedure: The GS-2 concentrations were varied from 15.5 to 100 µM, whereas the ATP concentration was kept constant at 1 µM. The concentrations of inhibitor (compound 6) used are shown in the plot.
On the other hand, we also studied the dependence of GSK-3β activity in the presence of these inhibitors as a function of the concentration of the substrate, the GS-2 peptide, used in the assays.

SMILES	mode of inhibition versus substrate GS-2
CCCCCCCCCCCC(=O)NNC(=O)c1c(O)c2ccccc2n(CC)c1=O [Compound 6, N′-Dodecanoyl-1-ethyl-4-hydroxy-2-oxo-1,2-dihydroquinoline-3-carbohydrazide]	substrate-non-competitive inhibitor

Each compound was assayed against GSK-3β (Homo sapiens, UniProt P49841) (assay: Kinetic study varying ATP concentration (ADP-Glo Kinase Assay, double-reciprocal plot)). Settings: ATP 1 to 50 μM, GS-2 12.5 μM, inhibitor 5 to 10 μM.
Type: biochemical
Procedure: The ATP concentrations were varied from 1 to 50 µM, whereas the concentration of the GS-2 peptide was kept constant at 12.5 µM. The concentrations of inhibitor (compound 6) used are shown in the plot.
The kinetic studies conducted by varying the ATP concentration from 1 to 50 µM, and the concentration of inhibitor 6 from 5 to 10 µM, were performed using the ADP-Glo™ Kinase Assay.

SMILES	mode of inhibition versus ATP
CCCCCCCCCCCC(=O)NNC(=O)c1c(O)c2ccccc2n(CC)c1=O [Compound 6, N′-Dodecanoyl-1-ethyl-4-hydroxy-2-oxo-1,2-dihydroquinoline-3-carbohydrazide]	non-ATP-competitive inhibitor

What follows are compounds tested on GSK-3β (assay: Study of the inhibition of GSK-3β as a function of enzyme-inhibitor pre-incubation time). Settings: different enzyme incubation times, two inhibitor concentrations.
Type: biochemical, human
Procedure: In order to determine the binding mode of these compounds, different kinetic studies were performed, varying the reaction times and the ATP concentration and the substrate concentration.

SMILES	reversibility of enzyme inhibition
CCCCCCCCCCCC(=O)NNC(=O)c1c(O)c2ccccc2n(CC)c1=O [Compound 6, N′-Dodecanoyl-1-ethyl-4-hydroxy-2-oxo-1,2-dihydroquinoline-3-carbohydrazide]	reversible inhibitor

The compounds below were run against recombinant human GSK3 enzyme (GSK-3β) (Homo sapiens, UniProt P49841) (assay: Measurement of the inhibition of GSK-3β (Kinase-Glo luminometric assay)). Settings: 25 μM substrate, 1 μM ATP, 30 min at 30 °C.
Type: biochemical
Procedure: The enzyme inhibition assays were performed using the luminometric methodology of Kinase-Glo®. […] The luminescent kinase kit (catalogue no. V6711) was obtained from Promega. The ATP and the other reagents were purchased from Sigma-Aldrich (St. Louis, Mo.).
The assays were performed in buffer using 96-well plates. 10 µl of the compound to be assayed (dissolved in DMSO at a concentration of 1 mM, and, in turn, dissolved in buffer to the concentration necessary for the experiment) and 10 µl (20 ng) of the enzyme are added to each well, followed by 20 µl of buffer containing 25 µM of the substrate and 1 µM of ATP. […] Following a half-hour incubation at 30° C., the enzymatic reaction is stopped with 40 µl of the Kinase-Glo® reagent. The luminescence is measured after ten minutes, using a POLARstar Optima multimode reader. The activity is proportional to the difference between the total ATP and the ATP consumed. The inhibitory activities were calculated as a function of the maximum activity, measured in the absence of inhibitor.

SMILES	IC50 [µM]
CCCCCCCC(=O)NNC(=O)c1c(O)c2cc(Br)ccc2n(C)c1=O [Compound 49, 6-Bromo-4-hydroxy-1-methyl-N′-octanoyl-2-oxo-1,2-dihydroquinoline-3-carbohydrazide]	6.28 ± 0.33
CCCCCCCCCCCC(=O)N(Cc1ccccc1)NC(=O)c1c(O)c2ccccc2n(Cc2ccccc2)c1=O [Compound 63, N′-1-dibenzyl-N′-dodecanoyl-4-hydroxy-2-oxo-1,2-dihydroquinoline-3-carbohydrazide]	6.84 ± 0.51
CCCCCCCC(=O)NNC(=O)c1c(O)c2cc(Br)ccc2n(CC)c1=O [Compound 51, 6-Bromo-1-ethyl-4-hydroxy-N′-octanoyl-2-oxo-1,2-dihydroquinoline-3-carbohydrazide]	7.34 ± 0.2
CCCCCCCC(=O)NNC(=O)c1c(O)c2cc(Cl)ccc2n(CC)c1=O [Compound 55, 6-Chloro-1-ethyl-4-hydroxy-N′-octanoyl-2-oxo-1,2-dihydroquinoline-3-carbohydrazide]	9.42 ± 0.23
CCCCCCCC(=O)NNC(=O)c1c(O)c2ccc(Cl)cc2n(CC)c1=O [Compound 59, 7-Chloro-1-ethyl-4-hydroxy-N′-octanoyl-2-oxo-1,2-dihydroquinoline-3-carbohydrazide]	4.83 ± 0.23
CCCCCCCCCCCC(=O)NNC(=O)c1c(O)c2ccccc2n(C)c1=O [Compound 4, N′-Dodecanoyl-4-hydroxy-1-methyl-2-oxo-1.2-dihydroquinoline-3-carbohydrazide]	7.35 ± 0.23
CCCCCCCCCCCC(=O)NNC(=O)c1c(O)c2ccccc2n(CC2CC2)c1=O [Compound 45, 1-(cyclopropylmethyl)-N′-dodecanoyl-4-hydroxy-2-oxo-1,2-dihydroquinoline-3-carbohydrazide]	5.25 ± 0.58
CCCCCCCCCCCC(=O)NNC(=O)c1c(O)c2ccc(Cl)cc2n(CC)c1=O [Compound 60, 7-Chloro-N′-dodecanoyl-1-ethyl-4-hydroxy-2-oxo-1,2-dihydroquinoline-3-carbohydrazide]	2.48 ± 0.26
CCCCCCCC(=O)NNC(=O)c1c(O)c2ccc(Cl)cc2n(C)c1=O [Compound 57, 7-Chloro-4-hydroxy-1-methyl-N′-octanoyl-2-oxo-1,2-dihydroquinoline-3-carbohydrazide]	6.66 ± 0.29
CCCCCCCCCCCC(=O)NNC(=O)c1c(O)c2cc(Cl)ccc2n(C)c1=O [Compound 54, 6-Chloro-N′-dodecanoyl-4-hydroxy-1-methyl-2-oxo-1,2-dihydroquinoline-3-carbohydrazide]	5.95 ± 0.49
CCCCCCCCCCCC(=O)NNC(=O)c1c(O)c2cc(Br)ccc2n(CC)c1=O [Compound 52, 6-Bromo-N′-dodecanoyl-1-ethyl-4-hydroxy-2-oxo-1,2-dihydroquinoline-3-carbohydrazide]	2.01 ± 0.18
CCCCCCCCCCCC(=O)NNC(=O)c1c(O)c2ccccc2n(CC)c1=O [Compound 6, N′-Dodecanoyl-1-ethyl-4-hydroxy-2-oxo-1,2-dihydroquinoline-3-carbohydrazide]	2.85 ± 0.36
CCCCCCCCCCCC(=O)NNC(=O)c1c(O)c2cc(Br)ccc2n(C)c1=O [Compound 50, 6-Bromo-N′-dodecanoyl-4-hydroxy-1-methyl-2-oxo-1,2-dihydroquinoline-3-carbohydrazide]	4.28 ± 0.5
CCCCCCCCCCCC(=O)NNC(=O)c1c(O)c2ccccc2n(Cc2ccccc2)c1=O [Compound 46, 1-Benzyl-N′-dodecanoyl-4-hydroxy-2-oxo-1,2-dihydroquinoline-3-carbohydrazide]	5.51 ± 0.27
CCCCCCCC(=O)NNC(=O)c1c(O)c2cc(Cl)ccc2n(C)c1=O [Compound 53, 6-Chloro-4-hydroxy-1-methyl-N′-octanoyl-2-oxo-1,2-dihydroquinoline-3-carbohydrazide]	8.48 ± 0.3
CCCCCCCCCCCC(=O)NNC(=O)c1c(O)c2cc(Cl)ccc2n(CC)c1=O [Compound 56, 6-Chloro-N′-dodecanoyl-1-ethyl-4-hydroxy-2-oxo-1,2-dihydroquinoline-3-carbohydrazide]	3.18 ± 0.28
CCCCCCCC(=O)NNC(=O)c1c(O)c2ccccc2n(C)c1=O [Compound 3, 4-Hydroxy-1-methyl-N′-octanoyl-2-oxo-1,2-dihydroquinoline-3-carbohydrazide]	8.67 ± 0.4
CCCCCCCC(=O)NNC(=O)c1c(O)c2ccc(Cl)cc2n(Cc2ccccc2)c1=O [Compound 61, 1-Benzyl-7-chloro-4-hydroxy-N′-octanoyl-2-oxo-1,2-di hydroquinoline-3-carbohydrazide]	5.96 ± 0.17
CCCCCCCCCCCC(=O)NNC(=O)c1c(O)c2ccc(Cl)cc2n(Cc2ccccc2)c1=O [Compound 62, 1-Benzyl-7-chloro-N′-dodecanoyl-4-hydroxy-2-oxo-1,2-dihydroquinoline-3-carbohydrazide]	5.99 ± 0.22
CCCCCCCCCCCC(=O)NNC(=O)c1c(O)c2ccc(Cl)cc2n(C)c1=O [Compound 58, 7-Chloro-N′-dodecanoyl-4-hydroxy-1-methyl-2-oxo-1,2-dihydroquinoline-3-carbohydrazide]	4.03 ± 0.19

What follows are compounds tested on RAW 264.7 cells (assay: Anti-inflammatory activity: nitrite production (Griess method) in LPS-stimulated RAW 264.7 cells). Settings: 1.25, 2.5, 5 and 10 μM; 1 h pre-treatment, 0.4 μg/ml LPS 24 h.
Type: cell-based
Procedure: A monolayer culture of RAW 264.7 cells growing in 96-well plates is used. The cells are treated for 1 h with the compounds evaluated. Subsequently, the inflammatory activity is stimulated with 0.4 µg/ml of LPS for 24 h. Once this time has elapsed, the production of nitrites is evaluated by means of the Griess method. Briefly, 50 µl of supernatant are transferred to 96-well plates and 50 µl of Griess reagent are added. The mixture is incubated for 15 minutes at room temperature and the absorbance at 520 nm is measured in a microplate reader.

SMILES	decrease in nitrite release
CCCCCCCCCCCC(=O)NNC(=O)c1c(O)c2ccccc2n(CC)c1=O [Compound 6, N′-Dodecanoyl-1-ethyl-4-hydroxy-2-oxo-1,2-dihydroquinoline-3-carbohydrazide]	dose-dependent effect on the decrease in nitrite release; also recorded: decrease in inflammatory activity
